Assay results as given in the supplement of paper PMC10307832.

Key:
Assay in all cases: relative viability (nuclei count vs DMSO), 5 days (fraction); higher = more cells survive
[1] = compound: C1/C(=C\C2=CC=CS2)/C(=O)/C(=C/C3=CC=CS3)/C1 + O=C(CCCCCCC(=O)Nc1ccccc1)NO [Vorinostat] (partner 1 µM)
Method in brief: (§1)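 Cells from lung cancer lines were seeded into 1536-well plates and, one day later, dosed by pin tool. Treatments were either a single drug or a fixed dose of an anchor drug with five library-drug doses (not always all listed) in √10 steps. After 5 days, nuclei were stained in a one-step fixation (final 0.05% Triton X-100, 1% formaldehyde, 1 ug/ml Hoechst) and counted on 4× images, and relative viability is the treated-to-vehicle nuclei ratio, as the median of duplicate plates.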

TPCA-1 + Bortezomib = compound: C1=CC(=CC=C1C2=CC(=C(S2)NC(=O)N)C(=O)N)F [TPCA-1] + CC(C)C[C@H](NC(=O)[C@H](Cc1ccccc1)NC(=O)c1cnccn1)B(O)O [Bortezomib] (partner 0.002 µM)
Method in brief: as §1

TPCA-1 + Alpelisib = compound: C1=CC(=CC=C1C2=CC(=C(S2)NC(=O)N)C(=O)N)F [TPCA-1] + Cc1nc(NC(=O)N2CCC[C@H]2C(N)=O)sc1-c1ccnc(C(C)(C)C(F)(F)F)c1 [Alpelisib] (partner 2 µM)
Method in brief: as §1

[2] = compound: C1/C(=C\C2=CC=CS2)/C(=O)/C(=C/C3=CC=CS3)/C1 + NC(=O)Nc1cc(-c2cccc(F)c2)sc1C(=O)N[C@H]1CCCNC1 [AZD7762] (partner 0.2 µM)
Method in brief: as §1

Cell Line	relative viability ([1]; first compound 0.2 µM)	relative viability ([1]; first compound 0.6325 µM)	relative viability ([1]; first compound 2 µM)	relative viability ([1]; first compound 6.325 µM)	relative viability ([1]; first compound 20 µM)	relative viability (TPCA-1 + Bortezomib; first compound 0.04 µM)	relative viability (TPCA-1 + Bortezomib; first compound 0.1265 µM)	relative viability (TPCA-1 + Bortezomib; first compound 0.4 µM)	relative viability (TPCA-1 + Bortezomib; first compound 1.265 µM)	relative viability (TPCA-1 + Bortezomib; first compound 4 µM)	relative viability (TPCA-1 + Alpelisib; first compound 0.04 µM)	relative viability (TPCA-1 + Alpelisib; first compound 0.1265 µM)	relative viability (TPCA-1 + Alpelisib; first compound 0.4 µM)	relative viability (TPCA-1 + Alpelisib; first compound 1.265 µM)	relative viability (TPCA-1 + Alpelisib; first compound 4 µM)	relative viability ([2]; first compound 0.2 µM)	relative viability ([2]; first compound 2 µM)	relative viability ([2]; first compound 6.325 µM)	relative viability ([2]; first compound 20 µM)	relative viability ([2]; first compound 0.6325 µM)
IA-LM	0.959	1.09	1.01	0.885	0.852	0.834	0.804	0.847	0.781	0.559	0.912	0.619	0.729	0.892	0.677	–	–	–	–	–
LK-2	0.255	0.337	0.432	0.324	0.32	–	–	–	–	–	1.23	0.758	0.946	0.692	0.627	0.548	0.562	0.408	0.421	–
NCI-H358	0.8	0.814	0.704	0.511	0.773	–	–	–	–	–	1	0.65	0.911	0.55	0.364	0.643	0.593	0.444	0.572	0.53
NCI-H520	0.767	0.787	0.733	–	0.72	0.82	0.607	0.717	0.453	0.252	0.869	0.783	0.844	0.892	0.788	–	–	–	–	–
NCI-H522	0.967	0.911	0.893	1.01	0.909	–	–	–	–	–	–	–	–	–	–	0.936	0.822	0.9	0.94	0.809
NCI-H661	0.845	0.825	0.756	0.638	0.778	0.651	0.662	0.986	0.753	0.501	1.01	0.2	0.768	0.546	0.487	–	–	–	–	–
NCI-H1299	–	–	–	–	–	1.02	0.961	1.01	0.981	1.07	1.11	1.09	1.05	1.04	1.1	–	–	–	–	–
NCI-H1395	0.668	0.767	1.03	0.744	0.8	–	–	–	–	–	1.16	0.997	1.14	1.07	0.941	0.36	0.405	0.411	0.414	0.356
NCI-H1563	–	–	–	–	–	0.924	0.875	0.836	0.741	0.793	0.976	0.932	0.897	0.993	0.911	–	–	–	–	–
NCI-H1648	0.435	0.408	0.603	0.366	0.297	–	–	–	–	–	–	–	–	–	–	0.778	0.571	0.601	0.511	0.622
NCI-H1650	0.49	0.44	0.796	0.56	0.498	0.26	0.219	0.204	0.203	0.208	–	–	–	–	–	–	–	–	–	–
NCI-H1703	–	–	–	–	–	0.299	0.385	0.394	0.41	0.367	0.336	0.3	0.304	0.233	0.207	0.121	0.148	0.119	0.128	0.176
NCI-H1792	–	–	–	–	–	0.97	0.924	0.84	0.964	0.559	0.733	0.714	0.646	0.675	0.389	0.772	0.75	0.521	0.587	0.755
NCI-H1793	1.02	0.753	0.892	0.654	0.734	–	–	–	–	–	0.724	0.646	0.735	0.828	0.566	0.488	0.596	0.328	0.199	0.482
NCI-H1944	0.619	0.535	0.559	–	0.528	–	–	–	–	–	0.859	0.799	0.815	0.744	0.658	0.502	0.526	–	0.442	0.461
NCI-H2009	0.721	0.733	0.729	–	0.68	1.25	0.921	1.07	0.516	0.536	1.2	1.13	1.13	1.1	1.2	–	–	–	–	–
NCI-H2023	0.722	0.67	0.727	0.582	0.539	1.07	0.941	1.11	0.845	0.386	0.598	0.522	0.634	0.489	0.417	–	–	–	–	–
NCI-H2170	0.898	0.814	0.787	0.728	0.766	–	–	–	–	–	0.906	0.697	0.803	0.733	0.526	0.921	0.866	0.714	0.764	0.923
NCI-H2228	0.668	0.563	0.764	0.396	0.504	1.01	0.891	0.916	1.12	0.6	0.869	0.809	1.02	0.609	0.485	–	–	–	–	–
NCI-H2342	0.667	0.997	0.85	0.757	0.683	–	–	–	–	–	–	–	–	–	–	0.484	0.718	0.483	0.363	0.537
SK-LU-1	0.849	0.764	0.75	0.677	0.774	1.26	0.962	1.1	0.879	0.739	1.16	0.805	1	0.605	0.452	–	–	–	–	–
SK-MES-1	1.18	1.13	1.1	0.985	1.11	–	–	–	–	–	0.935	0.704	0.996	0.691	0.586	–	–	–	–	–
SW 900	0.525	0.485	0.569	0.59	0.558	–	–	–	–	–	–	–	–	–	–	0.74	0.628	0.495	0.602	0.665
SW 1573	0.756	0.971	0.89	0.721	0.808	1.07	1.19	1.1	1.11	0.834	0.872	0.631	0.659	0.709	0.784	–	–	–	–	–
